Source: US20060110376A1, “MDA-7 and free radicals in the treatment of cancer” (priority 2002, published 2006)

Assays:
Type in all cases: cell-based, human
[1] = system: RCC cell lines A498 and UOK121N; test: Cell death (Giemsa staining, trypan blue); details: 10 mM N-acetyl cysteine 1 h before As2O3
Experimental: Cells were plated in 6 well plates (˜5×10^4 cells/well) and 24 h later treated with GST, GST-MDA-7 (both 0.5 nM) and As2O3 (0.5 μM) as indicated. Where indicated, cells were pre-treated with 10 mM N-acetyl cysteine 1 h prior to addition of As2O3. Cells were isolated 96 h after GST-MDA-7 treatment. Cell death was determined on isolated fixed cells by Giemsa staining for apoptosis and necrosis (presented as a single value) as described (30). Panel A. UOK121N cells. Panel B. A498 cells. […]
Assessment of Apoptosis and Cell Death. […] For each condition, 10 randomly selected fields per slide were evaluated, encompassing at least 15000 cells (Dai et al., 2002, Cell Cycle 1:143-152; Qiao et al., 2001, Mol. Biol. Cell 12:2629-2645). To confirm the results of morphologic analysis, in some cases cells were also evaluated by TUNEL staining and oligonucleosomal DNA fragmentation assay as follows; staining, cytospin slides were fixed with 4% formaldehyde/PBS for 10 min, treated with acetic acid/ethanol (1:2) for 5 min, and incubated with terminal transferase reaction mixture containing 1× terminal transferase reaction buffer, […] terminal transferase, 2.5 mM CoCl2, and 2 pmol fluorescein-12-dUTP (Boehringer Mannheim, Indianapolis, Ind.) at 37° C. for 1 h. […]
Assessment of Cell Viability. […] Cells (˜400) were counted in all four fields of a hemocytometer.

[2] = system: A498, UOK121N and primary renal epithelial cells; test: MTT cell growth assay, arsenic trioxide alone
Experimental: FIG. 26. Arsenic trioxide causes a concentration-dependent reduction in primary and renal carcinoma cell growth. Cells were plated in 12 well plates (˜1×10^4 cells/well) and 24 h later treated with increasing concentrations of As2O3 as indicated. Cell growth was determined via MTT assay 96 h after GST-MDA-7 treatment. Data are the means of 12 wells (one plate per condition, ±SEM) from a representative experiment using separate As2O3 formulations (n=3). Arsenic trioxide caused a dose-dependent enhancement in cell killing at higher concentrations >10 μM.
MTT Assay for Determination of Cellular Viability. The MTT test is based on the enzymatic reduction of the tetrazolium salt MTT in living, metabolically active cells but not in dead cells. Cells were plated (5-10,000 cells per well of a 12 well plate) and 24 h after plating treated with either GST or GST-MDA-7 at the indicated concentrations. Thirty minutes after protein treatment, cells were treated with arsenic trioxide at the indicated concentrations. The cytotoxicity of the various treatments was assessed four days after irradiation by measurement of cell viability by use of the MTT assay, as described previously (McKinstry et al., 2002, Cancer Biol. Ther. 1:243-253). The plates were read on a Dynatech MR600 Microplate Reader at 540 nm. […]

[3] = system: RCC cell lines A498 and UOK121N; test: MTT cell growth assay; details: As2O3 0.5 μM; 96 h
Experimental: (§1) FIG. 25A-D. GST-MDA-7 causes a dose-dependent reduction in the proliferation of renal carcinoma cells but not primary renal epithelial cells. Cells were plated in 12 well plates (˜1×10^4 cells/well) and 24 h later treated with increasing concentrations of GST and GST-MDA-7 as indicated. Cell growth was determined via MTT assay 96 h after GST-MDA-7 treatment. Data are the means of 12 wells (one plate per condition, ±SEM) from a representative experiment using different preparations of GST-MDA-7 (n=3). Panel A. UOK121N cells. Panel B. A498 cells. Panel C. Primary renal epithelial cells. Panel D. Primary rat hepatocytes were isolated and cultured as described in Methods. Four hours after plating, hepatocytes were infected with either control CMV virus or Ad.mda-7 (at a multiplicity of infection of 50). […] Cell growth was determined via MTT assay 96 h after MDA-7 treatment. […]
(§2) FIG. 27A-C. […] Cell growth was determined via MTT assay 96 h after GST-MDA-7 treatment. […]
(§3) MTT Assay for Determination of Cellular Viability. […] The cytotoxicity of the various treatments was assessed four days after irradiation by measurement of cell viability by use of the MTT assay, as described previously (McKinstry et al., 2002, Cancer Biol. Ther. 1:243-253). The plates were read on a Dynatech MR600 Microplate Reader at 540 nm. […]

[4] = system: primary renal epithelial cells; test: MTT cell growth assay; details: low concentrations, each agent alone
Experimental: as §1, §2, §3

Row | Compound | effect of N-acetyl-cysteine on cell killing by GST-MDA-7 + arsenic trioxide [1] | concentrations giving dose-dependent enhancement in cell killing [2] [µM] | concentration above which proliferation was dose-dependently reduced ([2]; 96 h) | effect of arsenic trioxide on growth suppression by GST-MDA-7 [3] | growth potential [4]
1 | CC(=O)N[C@@H](CS)C(=O)O [NAC, N-acetyl-cysteine] | significantly reduced cell killing |  |  |  | 
2 | arsenic trioxide |  | > 10 | above 1 μM | enhanced the growth suppressive effects of GST-MDA-7 | Neither low concentrations of arsenic trioxide nor GST-MDA-7 alone altered the growth potential
